Source: patent US7807690B2, “2,3-dihydro-iminoisoindole derivatives” (Eisai R&D Management Co., Ltd., priority 2007, dated 2010)
Counter-ions that a name gives are not always drawn.

Molecular target: T1, human clotting factor VIIa (Homo sapiens, UniProt P08709)
T1 construct: a human clotting factor VIIa (hereinafter, “Factor VIIa”) purified sample; purchased Enzyme Research Laboratories HFVIIa
Assay: Inhibiting activity against clotting factor VIIa (chromogenic substrate Spectrozyme FVIIa, TF/Factor VIIa enzyme solution)
Type: biochemical
Conditions: 10 nmol/L human TF, 5 nmol/L Factor VIIa, room temperature 40 minutes, 405 nm
Method: A dimethyl sulfoxide (DMSO) solution was prepared with an invention compound concentration of 10 mmol/L (10 mmol/L compound solution).
One packet of tris-hydroxymethylaminomethane-preset (hereinafter referred to as “Tris preset”)(Product of Sigma Corp., Catalog No. T8293), 8.8 g of sodium chloride (NaCl) and 1 g of bovine serum albumin (hereinafter abbreviated as “BSA”) were dissolved in 1 L of water to prepare a Tris-BSA buffer (100 mmol/L Tris, 0.15 mol/L NaCl, 0.1% BSA, pH 7.4).
The Tris-BSA buffering solution (180 μL) was added to the aforementioned 10 mmol/L compound solution (20 μL). The mixture was provided for a 10-fold dilution series using the aforementioned Tris-BSA buffering solution to prepare solutions with compound concentrations of 1.0 mmol/L, 100, 10, 1, 0.1, 0.01 and 0.001 μmol/L (1.0 mmol-0.001 μmol/L compound solutions).
As a control, a solution was prepared by 10-fold dilution of DMSO with the Tris-BSA buffer (hereinafter referred to as “control 10% solution”).
After dissolving one pack of Tris-Preset, NaCl (8.8 g) and BSA (1 g) in water (approximately 900 mL), a 1 mol/L calcium chloride (CaCl2) aqueous solution (15 mL) and a 1 mg/mL Cephalin aqueous solution (30 mL) were added, and water was added to a total volume of 1 L. To this solution there was added a human tissue factor (hereinafter, “TF”) sample (product of Calbiochem, Catalog No. 612151)(450 μg) to a TF sample concentration of 10 nmol/L, and then a human clotting factor VIIa (hereinafter, “Factor VIIa”) purified sample (product of Enzyme Research Laboratories, Catalog No. HFVIIa)(250 μg) was added to a Factor VIIa purified sample concentration of 5 nmol/L, to prepare an enzyme solution (100 mmol/L Tris-HCl, 0.15 mol/L NaCl, 15 mmol/L CaCl2, 30 μg/mL Cephalin, 1 mg/mL BSA, 10 nmol/L TF, 5 nmol/L Factor VIIa).
To 110 μL of this enzyme solution there was added 15 μL of each of the 1.0-mmol-0.001 μmol/L compound solutions, and then 25 μL of a 1.0 mmol/L synthetic chromogenic substrate solution (Spectrozyme FVIIa, product of American Diagnostica, Catalog No. 217L) was added and the mixture was allowed to stand at room temperature for 40 minutes. The amount of 4-nitroanilide released into the solution was quantified by spectrophotometry (405 nm).
A control […] was used in place of the compound solution for measurement in the same manner as a control.
The enzyme reaction inhibition was determined based on this measurement in the presence of the compounds of the invention from 100 μmol/L to 0.1 nmol/L. The IC50 value of each compound as an index of inhibiting activity against clotting factor VIIa was calculated based on nonlinear regression analysis of the enzyme reaction inhibition at each compound concentration.

T1 sequence (P08709 213-466 limits assumed): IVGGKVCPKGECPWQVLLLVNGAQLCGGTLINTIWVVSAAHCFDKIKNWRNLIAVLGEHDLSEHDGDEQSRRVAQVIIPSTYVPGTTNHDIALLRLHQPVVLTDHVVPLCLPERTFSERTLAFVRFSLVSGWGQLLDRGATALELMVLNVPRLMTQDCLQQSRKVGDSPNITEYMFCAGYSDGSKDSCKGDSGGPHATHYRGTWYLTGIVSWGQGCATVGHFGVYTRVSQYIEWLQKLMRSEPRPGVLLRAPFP
T1 sequence (P08709 61-212 limits assumed): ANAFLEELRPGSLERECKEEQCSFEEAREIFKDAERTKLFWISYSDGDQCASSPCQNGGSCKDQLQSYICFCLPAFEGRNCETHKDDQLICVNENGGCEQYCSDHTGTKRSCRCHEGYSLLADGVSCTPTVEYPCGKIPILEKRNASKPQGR
T1 sequence (P13726 33-295 partner): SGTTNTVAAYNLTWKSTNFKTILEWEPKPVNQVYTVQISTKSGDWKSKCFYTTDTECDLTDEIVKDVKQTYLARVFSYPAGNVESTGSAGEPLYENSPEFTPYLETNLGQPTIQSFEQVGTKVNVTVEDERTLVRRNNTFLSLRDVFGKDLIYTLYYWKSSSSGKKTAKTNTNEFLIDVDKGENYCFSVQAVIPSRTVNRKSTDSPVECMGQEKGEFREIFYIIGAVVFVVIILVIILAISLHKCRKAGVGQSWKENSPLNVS

Row | SMILES | IC50 [nM]
1 | COc1cc(C(Nc2ccc3c(c2)CNC3=N)c2nn(-c3ncsc3C(=O)O)c(=O)[nH]2)c(F)c2c1OCCC2 (single isomer, unassigned) [Example 1] | 38
2 | COc1cc(C(Nc2ccc3c(c2)CNC3=N)c2nn(-c3ncccc3N)c(=O)[nH]2)cc2c1OCOC2 (single isomer, unassigned) [Example 2, acetate] | 13
3 | COc1cc(C(Nc2ccc3c(c2)CNC3=N)c2nn(-c3ncccn3)c(=O)[nH]2)cc2c1OCOC2 (single isomer, unassigned) [Example 5] | 20
4 | COc1cc(C(Nc2ccc3c(c2)CNC3=N)c2nn(-c3ccsc3C(=O)O)c(=O)[nH]2)cc2c1OCOC2 (single isomer, unassigned) [Example 7] | 3
5 | COc1cc(OCCO)c(F)c(C(Nc2ccc3c(c2)CNC3=N)c2nn(-c3ncsc3C(=O)O)c(=O)[nH]2)c1 (centres unmarked) [Example 6, 4-(3-{[2-Fluoro-3-(2-hydroxyethoxy)-5-methoxyphenyl]-(1-imino-2,3-dihydro-1H-isoindol-5-ylamino)methyl}-5-oxo-4,5-dihydro-[1,2,4]triazol-1-yl)thiazole-5-carboxylic Acid] | 123
6 | COc1cc(F)c(C(Nc2ccc3c(c2)CNC3=N)c2nn(-c3nc[nH]c3C(=O)O)c(=O)[nH]2)cc1OC (centres unmarked) [Example 9, 5-{3-[(2-Fluoro-4,5-dimethoxyphenyl)-(1-imino-2,3-dihydro-1H-isoindol-5-ylamino)methyl]-5-oxo-4,5-dihydro-[1,2,4]triazol-1-yl}-3H-imidazole-4-carboxylic Acid] | 42
7 | COc1cc(F)c(C(Nc2ccc3c(c2)CNC3=N)c2nn(-c3n[nH]cc3C(=O)O)c(=O)[nH]2)cc1OC (centres unmarked) [Example 15, 3-{3-[(2-Fluoro-4,5-dimethoxyphenyl)-(1-imino-2,3-dihydro-1H-isoindol-5-ylamino)methyl]-5-oxo-4,5-dihydro-[1,2,4]triazol-1-yl}-1H-pyrazole-4-carboxylic Acid] | 207

Results, then the compound that gave them:

Row | IC50 [nM] | SMILES
8 | 12 | COc1cc(F)c(C(Nc2ccc3c(c2)CNC3=N)c2nn(-c3ccccc3N)c(=O)[nH]2)cc1OC (single isomer, unassigned) [Example 10, acetate]
9 | 3 | CCc1cc(OCCO)c(F)c(C(Nc2ccc3c(c2)CNC3=N)c2nn(-c3ncccc3N)c(=O)[nH]2)c1 (single isomer, unassigned) [Example 16, Acetate]
10 | 2 | CCc1cc(OCCO)c(F)c(C(Nc2ccc3c(c2)CNC3=N)c2nn(-c3ccsc3C(=O)O)c(=O)[nH]2)c1 (single isomer, unassigned) [Example 17]
11 | 25 | CCc1cc(OCCN(C)C)c(F)c(C(Nc2ccc3c(c2)CNC3=N)c2nn(-c3ncccn3)c(=O)[nH]2)c1 (centres unmarked) [Example 3, 5-{[3-(2-Dimethylaminoethoxy)-5-ethyl-2-fluorophenyl]-(1-imino-2,3-dihydro-1H-isoindol-5-ylamino)methyl}-2-pyrimidin-2-yl-2,4-dihydro-[1,2,4]triazol-3-one Bistrifluoroacetate]
12 | 14 | CCc1cc(OCCO)c(F)c(C(Nc2ccc3c(c2)CNC3=N)c2nn(-c3ncccn3)c(=O)[nH]2)c1 (centres unmarked) [Example 4, 5-{[5-Ethyl-2-fluoro-3-(2-hydroxyethoxy)phenyl]-(1-imino-2,3-dihydro-1H-isoindol-5-ylamino)methyl}-2-pyrimidin-2-yl-2,4-dihydro-[1,2,4]triazol-3-one]
13 | 15 | CCc1cc(OCCN(C)C)c(F)c(C(Nc2ccc3c(c2)CNC3=N)c2nn(-c3ccccc3N)c(=O)[nH]2)c1 (centres unmarked) [Example 8, 2-(2-Aminophenyl)-5-{[3-(2-dimethylaminoethoxy)-5-ethyl-2-fluorophenyl]-(1-imino-2,3-dihydro-1H-isoindol-5-ylamino)methyl}-2,4-dihydro-[1,2,4]triazol-3-one bistrifluoroacetate]
14 | 242 | COc1cc(OCCO)c(F)c(C(Nc2ccc3c(c2)CNC3=N)c2nn(-c3ncoc3C(=O)O)c(=O)[nH]2)c1 (centres unmarked) [Example 11, 4-(3-{[2-Fluoro-3-(2-hydroxyethoxy)-5-methoxyphenyl]-(1-imino-2,3-dihydro-1H-isoindol-5-ylamino)methyl}-5-oxo-4,5-dihydro-[1,2,4]triazol-1-yl)oxazole-5-carboxylic acid]
15 | 163 | COc1cc(F)c(C(Nc2ccc3c(c2)CNC3=N)c2nn(-c3cccc[n+]3[O-])c(=O)[nH]2)cc1OC (centres unmarked) [Example 12, 5-[(2-Fluoro-4,5-dimethoxyphenyl)-(1-imino-2,3-dihydro-1H-isoindol-5-ylamino)methyl]-2-(1-oxypyridin-2-yl)-2,4-dihydro-[1,2,4]triazol-3-one]
16 | 4 | COc1cc(F)c(C(Nc2ccc3c(c2)CNC3=N)c2nn(-c3ccccc3C(=O)O)c(=O)[nH]2)cc1OC (centres unmarked) [Example 13, 2-{3-[(2-Fluoro-4,5-dimethoxyphenyl)-(1-imino-2,3-dihydro-1H-isoindol-5-ylamino)methyl]-5-oxo-4,5-dihydro-[1,2,4]triazol-1-yl}benzoic Acid Trifluoroacetate]
17 | 13 | COc1cc(OC)c(F)c(C(Nc2ccc3c(c2)CNC3=N)c2nn(-c3ccccc3[N+](=O)[O-])c(=O)[nH]2)c1 (centres unmarked) [Example 14, 5-[(2-Fluoro-3,5-dimethoxyphenyl)-(1-imino-2,3-dihydro-1H-isoindol-5-ylamino)methyl]-2-(2-nitrophenyl)-2,4-dihydro-[1,2,4]triazol-3-one trifluoroacetate]
